Data set [1] addresses T1, Solute carrier organic anion transporter family member 1A1 (Rattus norvegicus, UniProt P46720).
T1 sequence (P46720 whole entry): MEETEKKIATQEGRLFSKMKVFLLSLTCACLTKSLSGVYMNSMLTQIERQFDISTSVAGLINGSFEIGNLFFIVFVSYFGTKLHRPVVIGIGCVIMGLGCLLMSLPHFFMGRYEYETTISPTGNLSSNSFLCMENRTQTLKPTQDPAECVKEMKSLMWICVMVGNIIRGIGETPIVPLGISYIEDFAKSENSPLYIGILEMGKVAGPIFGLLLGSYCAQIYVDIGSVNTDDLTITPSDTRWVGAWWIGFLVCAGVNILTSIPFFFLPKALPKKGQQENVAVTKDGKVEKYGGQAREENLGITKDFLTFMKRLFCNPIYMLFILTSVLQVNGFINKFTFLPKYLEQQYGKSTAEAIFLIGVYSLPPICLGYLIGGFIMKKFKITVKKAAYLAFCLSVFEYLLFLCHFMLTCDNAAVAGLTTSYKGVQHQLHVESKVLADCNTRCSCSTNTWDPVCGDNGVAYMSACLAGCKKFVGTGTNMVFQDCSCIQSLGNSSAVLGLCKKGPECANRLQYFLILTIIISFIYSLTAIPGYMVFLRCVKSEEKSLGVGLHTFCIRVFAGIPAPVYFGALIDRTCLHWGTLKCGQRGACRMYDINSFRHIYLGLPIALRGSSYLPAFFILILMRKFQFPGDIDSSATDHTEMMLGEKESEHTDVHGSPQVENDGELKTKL
In words: TP_TRANSPORTER: inhibition of LTC4 uptake (LTC4: 0.01uM, DIDS: 250 uM) in Xenopus laevis oocytes. Details: scale not given: the % may be the effect or the level left. The settings on record: probe LTC4, read-out: Activity. It is filed as functional, cell-based, Oocyte.

For data set [2], the target named is T1, Solute carrier organic anion transporter family member 1A1. In words: TP_TRANSPORTER: inhibition of DNP-SG uptake (DNP-SG: 50 uM, DIDS: 250 uM) in Xenopus laevis oocytes. It is filed as functional, cell-based, Oocyte. Details: scale not given: the % may be the effect or the level left. The note with it: probe DNP-SG, read-out: Activity.
The target is the same in data set [3]. In words: TP_TRANSPORTER: inhibition of LTC4 uptake (LTC4: 0.01uM, Ouabain: 500 uM) in Xenopus laevis oocytes. The data set is classed as functional, cell-based, Oocyte. Details: scale not given: the % may be the effect or the level left. The settings on record: probe LTC4, read-out: Activity.
For data set [4] the target is unchanged. In words: TP_TRANSPORTER: inhibition of DNP-SG uptake (DNP-SG: 50 uM, Ouabain: 500 uM) in Xenopus laevis oocytes. It is filed as functional, cell-based, Oocyte. Details: scale not given: the % may be the effect or the level left. The note with it: probe DNP-SG, read-out: Activity.
The target is the same in data set [5]. In words: TP_TRANSPORTER: inhibition of LTC4 uptake (LTC4: 0.01uM, DNP-SG: 1000 uM) in Xenopus laevis oocytes. The data set is classed as functional, cell-based. The arrangement: scale not given: the % may be the effect or the level left. The settings on record: oocyte.
For data set [6] the target is unchanged. In words: TP_TRANSPORTER: inhibition of LTC4 uptake (LTC4: 0.01uM, Bilirubin ditaurate: 500 uM) in Xenopus laevis oocytes. The data set is classed as functional, cell-based, Oocyte. Details: scale not given: the % may be the effect or the level left. The note with it: probe LTC4, read-out: Activity.
Data set [7] has the same target. In words: TP_TRANSPORTER: inhibition of DNP-SG uptake (DNP-SG: 50 uM, Bilirubin ditaurate: 500 uM) in Xenopus laevis oocytes. The data set is classed as functional, cell-based, Oocyte. The arrangement: scale not given: the % may be the effect or the level left. The settings on record: probe DNP-SG, read-out: Activity.
Data set [8] shares this target. In words: TP_TRANSPORTER: inhibition of DNP-SG uptake (DNP-SG: 50 uM, p-Chlorophenacyl-SG: 1000 uM) in Xenopus laevis oocytes. The data set is classed as functional, cell-based, Oocyte. Details: scale not given: the % may be the effect or the level left. The settings on record: probe DNP-SG, read-out: Activity.
The target is the same in data set [9]. In words: TP_TRANSPORTER: inhibition of LTC4 uptake (LTC4: 0.01uM, p-Chlorophenacyl-SG: 1000 uM) in Xenopus laevis oocytes. The data set is classed as functional, cell-based, Oocyte. Details: scale not given: the % may be the effect or the level left. The settings on record: probe LTC4, read-out: Activity.
Data set [10] has the same target. In words: TP_TRANSPORTER: inhibition of DNP-SG uptake (DNP-SG: 50 uM, BSP: 250 uM) in Xenopus laevis oocytes. The data set is classed as functional, cell-based. Details: scale not given: the % may be the effect or the level left. The settings on record: oocyte.
For data set [11] the target is unchanged. In words: TP_TRANSPORTER: inhibition of LTC4 uptake (LTC4: 0.01uM, BSP: 250 uM) in Xenopus laevis oocytes. The data set is classed as functional, cell-based, Oocyte. Details: scale not given: the % may be the effect or the level left. The note with it: probe LTC4, read-out: Activity.
Substrate in data set [12]: CCCCC/C=C\C\C=C/C=C/C=C/[C@@H](SC[C@@H](NC(=O)CC[C@H](N)C(=O)O)C(=O)NCC(=O)O)[C@@H](O)CCCC(=O)O
In words: (§1) TP_TRANSPORTER: uptake in Xenopus laevis oocytes. The data set is classed as functional, cell-based, Oocyte.

Substrate in data set [13]: N[C@@H](CCC(=O)N[C@H](CSc1ccc([N+](=O)[O-])cc1[N+](=O)[O-])C(=O)NCC(=O)O)C(=O)O
The description is as §1. It is filed as functional, cell-based, Oocyte.

`O=S(=O)(O)c1cc(N=C=S)ccc1/C=C/c1ccc(NC=S)cc1S(=O)(=O)O`: the activity at 250 µM in data set [1] is 25%; in [2] it was 39%.

In the case of `C[C@@H]1O[C@@H](O[C@H]2C[C@@H](O)[C@]3(CO)[C@H]4[C@H](O)C[C@]5(C)[C@@H](C6=CC(=O)OC6)CC[C@]5(O)[C@@H]4CC[C@]3(O)C2)[C@H](O)[C@H](O)[C@H]1O` [OUABAIN], the figures for the activity at 500 µM in data set [3] and in [4] were 52% and 61%, respectively.

In the case of `N[C@@H](CCC(=O)N[C@H](CSc1ccc([N+](=O)[O-])cc1[N+](=O)[O-])C(=O)NCC(=O)O)C(=O)O`, the Activity in [5] is listed as 15%.

In the case of `C=CC1=C(C)/C(=C/c2[nH]c(Cc3[nH]c(/C=C4\NC(=O)C(C)=C4C=C)c(C)c3CCC(=O)NCCS(=O)(=O)O)c(CCC(=O)NCCS(=O)(=O)O)c2C)NC1=O` [BILIRUBIN DITAURATE], the activity at 500 µM amounted to 4% in data set [6] and 6% in [7].

For the molecule `NC(CCC(=O)N[C@@H](CSCC(=O)c1ccc(Cl)cc1)C(=O)NCC(=O)O)C(=O)O` (stereo partly drawn), the activity at 1000 µM in data set [8] worked out at 31%; in data set [9] it was 23%.

In data set [10], `O=C1OC(c2ccc(O)c(S(=O)(=O)[O-])c2)(c2ccc(O)c(S(=O)(=O)[O-])c2)c2c(Br)c(Br)c(Br)c(Br)c21.[Na+].[Na+]` [SULFOBROMOPHTHALEIN SODIUM] had an Activity of less than 2%. Further, the activity at 250 µM in data set [11] was less than 2%.

B1: Solute carrier organic anion transporter family member 1A1 (Rattus norvegicus) (protein)
chain: MEETEKKIATQEGRLFSKMKVFLLSLTCACLTKSLSGVYMNSMLTQIERQFDISTSVAGLINGSFEIGNLFFIVFVSYFGTKLHRPVVIGIGCVIMGLGCLLMSLPHFFMGRYEYETTISPTGNLSSNSFLCMENRTQTLKPTQDPAECVKEMKSLMWICVMVGNIIRGIGETPIVPLGISYIEDFAKSENSPLYIGILEMGKVAGPIFGLLLGSYCAQIYVDIGSVNTDDLTITPSDTRWVGAWWIGFLVCAGVNILTSIPFFFLPKALPKKGQQENVAVTKDGKVEKYGGQAREENLGITKDFLTFMKRLFCNPIYMLFILTSVLQVNGFINKFTFLPKYLEQQYGKSTAEAIFLIGVYSLPPICLGYLIGGFIMKKFKITVKKAAYLAFCLSVFEYLLFLCHFMLTCDNAAVAGLTTSYKGVQHQLHVESKVLADCNTRCSCSTNTWDPVCGDNGVAYMSACLAGCKKFVGTGTNMVFQDCSCIQSLGNSSAVLGLCKKGPECANRLQYFLILTIIISFIYSLTAIPGYMVFLRCVKSEEKSLGVGLHTFCIRVFAGIPAPVYFGALIDRTCLHWGTLKCGQRGACRMYDINSFRHIYLGLPIALRGSSYLPAFFILILMRKFQFPGDIDSSATDHTEMMLGEKESEHTDVHGSPQVENDGELKTKL
Regarding B1, the Km (in general, the concentration of substrate that gives half-maximal velocity) in [12] stood at 0.27 µM; in [13], 408 µM.

Source of the values: ChEMBL document CHEMBL2074330, “Identification of glutathione as a driving force and leukotriene C4 as a substrate for oatp1, the hepatic sinusoidal organic solute transporter” (J Biol Chem, 1998).
